This is an account of results in publication PMC10726367 (Journal of Medicinal Chemistry, 2023).

pEC50: −log10 of the molar value.

The target of the assay is T1, SERCA2a (Mus musculus, UniProt O55143).
T1 construct: host or cells: HL-1 cells
The experiment in a line: NADH-coupled ATPase assay on mouse heart ventricular SR microsomes (mouse SR). It is filed as biochemical. As to conditions: for SERCA2a mouse SR effect class: 10 μM (3 μM for 12b per Figure 6c), microsomal membrane vesicles; for SERCA2a ATPase activity in mouse SR vesicles (in words): 10 μM, vs 0.1 v/v% DMSO. The source says: Cyclopropanol derivatives have a variety of biological activities including enzyme inhibition and antibacterial and anticancer properties.[47]−[50] However, there have been no published reports on cyclopropanol-containing molecules specifically acting as modulators of RyRs and/or activators of SERCA. To investigate more directly whether the compounds influence the SERCA2 activity, we performed nicotinamide adenine dinucleotide (NADH) fluorescence-coupled ATPase assay according to Radnai et al.[51] In this assay, the change in NADH coenzyme fluorescence reflects the level of the consumption of ATP, which we took as indicator of SERCA2 activity.[51],[52] ATP hydrolysis by SERCA2 is required to pump calcium ions into the SR. We assume that a higher rate of ATP hydrolysis reflects an increase in SERCA2 ATPase activity that leads to a greater pumping of calcium ions into the SR.
We observed the rate of NADH oxidation, which is coupled to ATP hydrolysis, by measuring changes in NADH intrinsic fluorescence over time after ATP injection into microsomal membranes enriched in SR vesicles isolated from mouse heart ventricles (mouse SR) and HEK-293T cells (HEK-293 ER). The presence of SERCA2 in mouse SR and HEK-293 ER of isolated microsomal vesicles was confirmed by Western blotting (Figures S5 and S6; for details see Experimental Section). The NADH fluorescence decrease was recorded on a multiwell plate reader TECAN Spark 20M (λex = 380 nm, λem = 470 nm). […] Consistent with our previous experiment on HL-1 cells, we observed a strong decrease in NADH fluorescence reflecting an increase in SERCA2a activity in SR microsomes derived from mouse heart ventricles (n = 3–5) in solutions containing the tested compounds compared to the 0.1 v/v% DMSO sample (Figure 6). […] Similar results were obtained in cardiac SR vesicles from the mouse heart. […] This difference may indicate isoform-specific effects of our compound in HEK-293 cells expressing mostly SERCA2b[53] versus mouse SR vesicles containing mostly SERCA2a.[54] In both experiments, we used CDN1163 as a positive control.
All animal procedures were performed in accordance with Directive 2010/63/EU of the European Parliament and the Council on the protection of animals used in research as well as Animal Welfare Law of the Federal Republic of Germany (Tierschutzgesetz der Bundesrepublik Deutschland, TierSchG). […] All mice were housed with a 12 h light/dark cycle with free access to food and water. Adult C57BL/6N mice of both genders were sedated with isoflurane in a sealed container and quickly euthanized by cervical dislocation. Heart ventricles were taken out instantly, washed with ice-cold PBS plus complete, cut into smaller pieces, and snap frozen in liquid nitrogen straight away.
Lysis buffer thawed on ice (10 mM EDTA, 10 mM HEPES, cOmplete, pH 7.4) was added, and the ventricles were homogenized with a Qiagen Cellruptor for 20 s. On ice, an equal volume of restoration buffer (500 mM sucrose, 10 mM HEPES, cOmplete, pH7.2) was added and briefly mixed. The homogenate was centrifuged at 10^4 × g for 20 min at 4 °C. The supernatant was collected and centrifuged again for another hour (10^5 × g at 4 °C). Then, the pellet was carefully resuspended in resuspension buffer (250 mM sucrose, 10 mM HEPES, cOmplete, pH 7.2) on ice by pipetting the solution up and down until fully dissolved. The obtained solution was diluted to a protein concentration of 5 μg/μL with the resuspension buffer, and the aliquots were snap frozen in liquid nitrogen and then stored at −80 °C until usage.
To determine whether new compounds could increase the SERCA2 activity, HEK-293 microsomes (40–150 μg of total protein) or mouse ventricular microsomes (1–20 μg of total protein) were diluted in 100 μL of the assay buffer used for measurement of SERCA activity (described below) and incubated at room temperature for 5 min prior to the experiments. […]

T1 sequence (O55143 1-998 isoform O55143-2): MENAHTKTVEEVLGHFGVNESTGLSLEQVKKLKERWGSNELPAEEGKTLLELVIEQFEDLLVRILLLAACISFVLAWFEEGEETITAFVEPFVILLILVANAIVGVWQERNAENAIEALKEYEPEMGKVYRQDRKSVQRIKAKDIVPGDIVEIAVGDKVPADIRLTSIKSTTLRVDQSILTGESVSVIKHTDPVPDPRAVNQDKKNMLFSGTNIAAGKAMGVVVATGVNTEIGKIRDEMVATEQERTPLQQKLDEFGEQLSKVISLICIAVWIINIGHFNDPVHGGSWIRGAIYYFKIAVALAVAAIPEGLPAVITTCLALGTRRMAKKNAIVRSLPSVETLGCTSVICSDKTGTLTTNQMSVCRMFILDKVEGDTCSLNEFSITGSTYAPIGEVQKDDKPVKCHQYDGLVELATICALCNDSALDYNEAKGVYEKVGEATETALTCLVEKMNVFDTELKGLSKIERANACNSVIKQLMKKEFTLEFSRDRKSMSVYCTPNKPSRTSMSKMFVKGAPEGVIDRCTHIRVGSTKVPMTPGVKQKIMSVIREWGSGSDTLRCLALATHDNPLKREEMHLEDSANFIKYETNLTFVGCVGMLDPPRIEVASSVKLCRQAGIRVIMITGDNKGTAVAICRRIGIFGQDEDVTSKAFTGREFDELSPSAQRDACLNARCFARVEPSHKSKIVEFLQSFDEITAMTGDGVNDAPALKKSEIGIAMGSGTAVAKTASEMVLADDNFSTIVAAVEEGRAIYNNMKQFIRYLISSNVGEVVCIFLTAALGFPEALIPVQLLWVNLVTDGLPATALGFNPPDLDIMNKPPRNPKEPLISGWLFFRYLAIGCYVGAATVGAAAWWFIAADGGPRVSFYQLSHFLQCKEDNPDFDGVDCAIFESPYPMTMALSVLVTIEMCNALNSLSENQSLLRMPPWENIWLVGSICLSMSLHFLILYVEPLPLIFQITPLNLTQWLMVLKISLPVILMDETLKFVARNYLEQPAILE

Regarding `COc1ccc2c(c1)CN(CCCCN(CCCCC1(O)CC1)CCCCC1(O)CC1)CCS2` [12a, 1,1′-(((4-(7-Methoxy-2,3-dihydrobenzo[1,4-f]thiazepin-4(5H)-yl)butyl)azanediyl)bis(butane-4,1-diyl))bis(cyclopropan-1-ol)], the “SERCA2a mouse SR effect class” value is on record as “+++”. For the setting “ATPase activity, value, interval”, this compound showed a pEC50 of 6.42.

On to `COc1ccc(SCCCNCCCCC2(O)CC2)cc1` [11c, 1-(4-((3-((4-Methoxyphenyl)thio)propyl)amino)butyl)cyclopropan-1-ol], for which the “SERCA2a mouse SR effect class” value is given as “+++”. In the case of `COc1ccc2c(c1)CN(CCCCC1(O)CC1)CCS2` [11d, 1-(4-(7-Methoxy-2,3-dihydrobenzo[1,4-f]thiazepin-4(5H)-yl)butyl)cyclopropan-1-ol], the “SERCA2a mouse SR effect class” value is “++” and the “SERCA2a ATPase activity in mouse SR vesicles (in words)” value was “moderate”. Take `COc1ccc(OCCCNCCCCC2(O)CC2)cc1` [11b, 1-(4-((3-(4-Methoxyphenoxy)propyl)amino)butyl)cyclopropan-1-ol]: the “SERCA2a mouse SR effect class” value is on record as “+”. On the same count and under the same terms, next, `COc1ccc2c(c1)CN(CCCCNCCCCC1(O)CC1)CCS2` [11a, 1-(4-((4-(7-Methoxy-2,3-dihydrobenzo[1,4-f]thiazepin-4(5H)-yl)butyl)amino)butyl)cyclopropan-1-ol]: “+”. With `COc1ccc2c(c1)CN(Cc1ccc(C(=O)O)cc1)CCS2` [ARM210, reference compound], the “SERCA2a mouse SR effect class” value is “++” and the “SERCA2a ATPase activity in mouse SR vesicles (in words)” value is “improvement of ATPase activity”. On to `COc1ccc(SCCCN(CCCCC2(O)CC2)CCCCC2(O)CC2)cc1` [12c, 1,1′-(((3-((4-Methoxyphenyl)thio)propyl)azanediyl)bis(butane-4,1-diyl))bis(cyclopropan-1-ol)], for which the “SERCA2a mouse SR effect class” value is recorded as “+”.

One may read the pEC50 as −log10 of the EC50, conventionally taken in molar units. Higher therefore signals a small EC50.
